Data reported in patent US20120329117A1, “CONTROL OF CONTAMINANT MICROORGANISMS IN FERMENTATION PROCESSES WITH SYNERGISTIC FORMULATIONS CONTAINING STABILIZED CHLORINE DIOXIDE AND PEROXIDE COMPOUND” (E.I. DU PONT DE NEMOURS AND COMPANY, priority 2010, published 2012).

Test system: L. brevis
Test: Reduction of lactic acid bacteria in inoculated corn mash (plate count on MRS agar)
Assay type: cell-based, Lactobacillus brevis
Conditions: corn mash inoculated with L. brevis
Procedure: In this example, corn mash was obtained from a commercial ethanol plant immediately after the liquefaction step. The mash was cooled to room temperature and then inoculated with L. brevis cultures prepared as was described in Example 1. 50 ml portions of the inoculated corn mash were treated with SCD, HP and a combination of both as follows:
Following treatment, the samples were incubated for 2 hours in a shaking incubator. Surviving bacteria in each sample was enumerated by plating serial dilutions of each on MRS agar plates (available from Difco Laboratories, Inc., Sparks, Md.) and further incubating the plates for 48 hours at 32° C.

## OO [HP, hydrogen peroxide]
50 ppm HP
  Viable cells after 2 hours: 7.48 Log CFU/g
100 ppm HP
  Viable cells after 2 hours: 5.97 Log CFU/g
